Values quoted from earlier work, collected in patent EP0594592B1, “A GROWTH FACTOR IN […] ARTIFICIAL TRANSPLANTS” (Strid, Lars, priority 1990, dated 1997).

Columns and labels:
thromboxane = conditions: result in words
[1] = test system: macrophages, monocytes, mast cells and capillary endothelial cells; conditions: result in words
[2] = on a molar basis
blood platelets = conditions: result in words

## copper complex of the tripeptide glycyl-L-histidyl-L-lysine [GHK-Cu^2+]
thromboxane
  effect on the hormone thromboxane: inhibits
[1]
  chemoattractive effect on cells necessary for wound-healing: chemoattractive effect
[2]
  superoxide dismutase-like activity, rate constant relative to enzymatic Cu,Zn-superoxide dismutase: about 25%
Blood platelets
  aggregation of blood platelets: inhibits
fibroblasts; at 10^-9M, result in words
  fibroblasts synthesis of collagen: almost doubles
fibroblasts; cultures of fibroblasts, at 10^-9M
  increase in collagen synthesis: about 80%
fibroblasts; cultures of fibroblasts, lowest concentration with stimulation
  peptide concentration at which stimulation of collagen synthesis is observed (as low as): 10^-12 M
fibroblasts; cultures of fibroblasts, maximal activity
  peptide concentration of maximum stimulation of collagen synthesis: 10^-9 M
